Converted amounts (≈) assume the structure as drawn.

Assay [1] concerns C. albicans E81022 strain. The experiment in a line: Experimental systemic candidal infection model in mice. It counts as in vivo. Particulars: peroral, 3 times every 4 hours, female ICR mice infected iv with C. albicans E81022, observed until 14 days after infection. How it is done: 2. Experimental Systemic Candidal Infection Model in Mice (1) Preparation of Fungal Inoculant
A standing culture of C. albicans E81022 strain was carried out for 48 hours at 30° C. in Sabouraud dextrose agar medium (SDA), and the recovered fungal cells were suspended in sterilized physiological saline. By counting the fungal number on cytometry plate, the suspension was diluted to 2×10^7 cells/mL with sterilized physiological saline to serve fungal inoculum.
The fungal inoculum was used in amounts of 0.2 mL to inoculate 4.5 to 5.5 week-old female ICR mice in the tail vein (4×10^6 cells/mouse).
From 0.5 to 1 hour after fungal inoculation, 0.2 mL of agent solution (dissolved or suspended in sterilized physiological saline containing 6.5% dimethyl sulfoxide and 3.5% Tween 80) was administered into the stomach using a peroral probe, 3 times every 4 hours. The agent concentration was 2.5 or 10 mg/kg, and the number of animal in one group was five animals.
(4) Determination of Effects
The protective effect was determined by observing life/death until 14 days after infection and calculating the mean survival days.

Assay [2] has as its system C. albicans CAF2-1 strain. The experiment in a line: Anti-Candida activity (MIC measurement). Format: cell-based. Particulars: CAF21STRAIN, minimum inhibitory concentration (MIC) by visual inspection, RPMI 1640, 42 to 48 hours at 35° C. How it is done:
(§1) 1. Anti-Candida Activity and Anti-Aspergillus Activity
(§2) (1) Preparation of Fungal Sample
(§3) For the C. albicans CAF2-1 strain, a fungal suspension from a standing culture for 48 hours at 30° C. in a Sabouraud dextrose liquid culture medium (SDB) was diluted with RPMI 1640 medium to adjust a fungal suspension of 1.2×10^3 cells/mL. For the A. fumigatus Tsukuba strain, −80° C. stored strain was diluted with RPMI 1640 medium to adjust to a fungal suspension of 4.5×10^3 cells/mL.
(§4) (2) Preparation of an Agent Dilution Plate
(§5) Using a U-bottomed 96-well plate, 8 samples/plate (A to H) of sample dilution solutions were prepared. On the 2nd to 12th rows were dispensed 10 μL of dimethyl sulfoxide solution. Weighed sample was dissolved in dimethyl sulfoxide to prepare a 2.5 mg/mL solution, 20 μL of this solution was added to the first row of the prepared plate, and 12 steps of two-fold step dilutions (10 μL of solution+10 μL of dimethyl sulfoxide solution) were performed on the plate. This sample dilution solution was dispensed in an amount of 1 μL into a flat-bottomed 96-well plate for MIC measurement to prepare a sample dilution plate.
(§6) (3) Inoculation of Fungal Suspension and Culture
(§7) The fungal suspension prepared in (1) was used in an amount of 99 μL/well to inoculate the flat-bottomed 96-well plate containing 1 μL/well of the test compound dilution prepared in (2), and standing culture was performed aerobically for 42 to 48 hours at 35° C.
(§8) The following representative compounds prepared in the examples were measured for anti-Candida activity and anti-Aspergillus activity by measurement method in (1).

The subject of assay [3] is A. fumigatus Tsukuba strain. Nature of the assay: Anti-Aspergillus activity (MIC measurement). It counts as cell-based. To be noted: minimum inhibitory concentration (MIC) by visual inspection, RPMI 1640, 42 to 48 hours at 35° C. How it is done:
as §1, §2, §3, §4, §5, §6, §7, §8

`Nc1ncccc1-c1nnc(Cc2ccc(OCc3ccccc3)cc2)o1` [Example 9]: the “Mean Survival Day (MSD)” value is 7.8 days in assay [1] (Dose 2.5 mg/kg) and 10.8 days in assay [1] (Dose 10 mg/kg). Also, the MIC (in general, the lowest concentration found to suppress growth) in assay [2] turned out to be 0.39 µg/mL (≈ 1.09 µM); in assay [3], 0.78 µg/mL (≈ 2.18 µM).
The corresponding values for `Nc1ccc(-c2nnn(Cc3ccc(OCc4ccccn4)cc3)n2)c(N)n1` [Example 27, 3-(2-(4-(Pyridin-2-ylmethoxy)-benzyl)-2H-tetrazol-5-yl)-pyridin-2,6-diamine] are 5.6 days, 12 days, 0.2 µg/mL (≈ 0.534 µM) and 0.78 µg/mL (≈ 2.08 µM).
Take `CCCCOCc1ccc(Cn2cc(-c3ccc(COC)nc3N)nn2)cc1` [Example 41, 3-[1-(4-Butoxymethyl-benzyl)-1H-[1,2,3]triazol-4-yl]-6-methoxymethyl-pyridin-2-ylamine]: the “Mean Survival Day (MSD)” value in assay [1] (Dose 2.5 mg/kg) worked out at 6.2 days; in assay [1] (Dose 10 mg/kg) it was 11.2 days. The figures for the minimal inhibitory concentration (MIC) in assay [2] and in assay [3] were 0.39 µg/mL (≈ 1.02 µM) and 1.56 µg/mL (≈ 4.09 µM), respectively.
Turning to `Cc1ccc(Cc2ccc(Cn3nnc(-c4cccnc4N)n3)cc2)o1` [Example 53, 3-(2-(4-(5-Methyl-furan-2-ylmethyl)-benzyl)-2H-tetrazol-5-yl)-pyridin-2-ylamine], the “Mean Survival Day (MSD)” value in assay [1] (Dose 2.5 mg/kg) turned out to be 7.6 days; in assay [1] (Dose 10 mg/kg), 13.8 days. For the same compound, the figures for the MIC in assay [2] and in assay [3] were 0.39 µg/mL (≈ 1.13 µM) and 0.78 µg/mL (≈ 2.25 µM), respectively.
Turning to `CCCCOCc1ccc(Cn2cc(-c3ccc(N)nc3N)nn2)cc1` [Example 42, 3-(1-(4-Butoxymethyl-benzyl)-1H-[1,2,3]triazol-4-yl)-pyridin-2,6-diamine], the “Mean Survival Day (MSD)” value in assay [1] (Dose 10 mg/kg) was 13.6 days. Moreover, the minimum inhibitory concentration (MIC) was 0.2 µg/mL (≈ 0.567 µM) in assay [2] and 0.78 µg/mL (≈ 2.21 µM) in assay [3].
In the case of `Nc1ncccc1-c1nnn(Cc2ccc(OCc3ccccc3)cc2)n1` [Example 5, 3-(2-(4-Benzyloxy-benzyl)-2H-tetrazol-5-yl)-pyridin-2-ylamine], the “Mean Survival Day (MSD)” value in assay [1] (Dose 10 mg/kg) is reported as 11.8 days. In addition, the minimal inhibitory concentration (MIC) in assay [2] was 0.78 µg/mL (≈ 2.18 µM); in assay [3], 1.56 µg/mL (≈ 4.35 µM).
Regarding `Nc1ncccc1-c1noc(Cc2ccc(OCc3ccccc3)cc2)n1` [Example 13, 3-(5-(4-Benzyloxy-benzyl)-[1,2,4]-oxadiazol-3-yl)-pyridin-2-ylamine], the MIC in assay [2] and in assay [3] was 1.56 µg/mL (≈ 4.35 µM) in each case.
Turning to `COCc1ccc(-c2nnn(Cc3ccc(OCc4ccccc4)cc3)n2)c(N)n1` [Example 6, 3-(2-(4-Benzyloxy-benzyl)-2H-tetrazol-5-yl)-6-methoxymethyl-pyridin-2-ylamine], the MIC in assay [2] and in assay [3] was 1.56 µg/mL (≈ 3.88 µM) throughout.
Regarding `Nc1ncccc1-c1ncn(Cc2ccc(OCc3ccccc3)cc2)n1` [Example 14, 3-(1-(4-Benzyloxy-benzyl)-1H-[1,2,4]triazol-3-yl)-pyridin-2-ylamine], the minimal inhibitory concentration (MIC) in assay [2] is 6.25 µg/mL (≈ 17.5 µM); in assay [3], greater than 25 µg/mL.
Regarding `Nc1ncccc1-c1cn(Cc2ccc(Oc3ccccc3)cc2)nn1` [Example 32, 3-(1-(4-Phenoxy-benzyl)-1H-[1,2,3]triazol-4-yl)-pyridin-2-ylamine], the MIC amounted to 0.1 µg/mL (≈ 0.291 µM) in assay [2] and 0.39 µg/mL (≈ 1.14 µM) in assay [3].
Regarding `Nc1ncccc1-c1cn(Cc2ccc(OCc3ccccc3)cc2)nn1` [Example 1, 3-(1-(4-Benzyloxy-benzyl)-1H-[1,2,3]triazol-4-yl)-pyridin-2-ylamine], the MIC in assay [2] came to 0.05 µg/mL (≈ 0.14 µM); in assay [3], 0.2 µg/mL (≈ 0.56 µM).
`Nc1ccc(-c2nnc(Cc3ccc(OCc4ccccc4)cc3)s2)c(N)n1` [Example 10]: the minimal inhibitory concentration (MIC) in assay [2] came to 3.13 µg/mL (≈ 8.04 µM); in assay [3] it was 25 µg/mL (≈ 64.2 µM).
In the case of `Nc1ccc(-c2nnn(Cc3ccc(OCc4ccccc4)cn3)n2)c(N)n1` [Example 40, 3-(2-(5-Benzyloxy-pyridin-2-ylmethyl)-2H-tetrazol-5-yl)-pyridin-2,6-diamine], the MIC is 1.56 µg/mL (≈ 4.17 µM) in assay [2] and greater than 25 µg/mL in assay [3].

These data come from US8183264B2, “Pyridine derivative substituted by heteroaryl ring, and antifungal agent comprising the same” (Eisai R&D Managment Co., Ltd., priority 2006, dated 2012).
